The subject of one data set is HepG2 cells. The experiment in a line: Antiproliferation assay (CCK-8), HepG2. The conditions noted are these: Homo sapiens, HepG2; CCK-8, 72 h; read-out: IC50 antiproliferative HepG2. It is filed as cell-based. Here is the method: (§1) The antiproliferative activities of the compounds against HepG2, MDA-MB-231, and HCT116 cell lines were tested by the standard CCK-8 method. Cell viability was measured by Cell Counting Kit-8 (Meilunbio, Dalian, China) according to the manufacturer’s instructions. Briefly, cancer cells were seeded into 96-well plates at a density of 2.5 × 10^3 cells per well. […] Subsequently, CCK-8 solution was added into each well and incubated for an additional 2 h. The absorbance at 450 nm was determined in each well using the BioTek Synergy HTX microplate reader. The assay was performed in triplicate, and each experiment was repeated three times.

A further data set deals with MDA-MB-231 cells. The experiment in a line: Antiproliferation assay (CCK-8), MDA-MB-231. It is filed as cell-based. To be noted: Homo sapiens, MDA-MB-231; CCK-8, 72 h; read-out: IC50 antiproliferative MDA-MB0231. The procedure: as §1
The test system of another data set is HCT116 cells. In words: Antiproliferation assay (CCK-8), HCT116. It is filed as cell-based. The conditions noted are these: Homo sapiens, HCT-116; CCK-8, 72 h; read-out: IC50 antiproliferative HCT116. The procedure: Cell viability was measured by Cell Counting Kit-8 (Meilunbio, Dalian, China) according to the manufacturer’s instructions. Briefly, cancer cells were seeded into 96-well plates at a density of 2.5 × 10^3 cells per well. […] Subsequently, CCK-8 solution was added into each well and incubated for an additional 2 h. The absorbance at 450 nm was determined in each well using the BioTek Synergy HTX microplate reader. The assay was performed in triplicate, and each experiment was repeated three times.

In another data set the target is T1, Mer kinase (Homo sapiens, UniProt Q12866).
T1 sequence (Q12866 21-999): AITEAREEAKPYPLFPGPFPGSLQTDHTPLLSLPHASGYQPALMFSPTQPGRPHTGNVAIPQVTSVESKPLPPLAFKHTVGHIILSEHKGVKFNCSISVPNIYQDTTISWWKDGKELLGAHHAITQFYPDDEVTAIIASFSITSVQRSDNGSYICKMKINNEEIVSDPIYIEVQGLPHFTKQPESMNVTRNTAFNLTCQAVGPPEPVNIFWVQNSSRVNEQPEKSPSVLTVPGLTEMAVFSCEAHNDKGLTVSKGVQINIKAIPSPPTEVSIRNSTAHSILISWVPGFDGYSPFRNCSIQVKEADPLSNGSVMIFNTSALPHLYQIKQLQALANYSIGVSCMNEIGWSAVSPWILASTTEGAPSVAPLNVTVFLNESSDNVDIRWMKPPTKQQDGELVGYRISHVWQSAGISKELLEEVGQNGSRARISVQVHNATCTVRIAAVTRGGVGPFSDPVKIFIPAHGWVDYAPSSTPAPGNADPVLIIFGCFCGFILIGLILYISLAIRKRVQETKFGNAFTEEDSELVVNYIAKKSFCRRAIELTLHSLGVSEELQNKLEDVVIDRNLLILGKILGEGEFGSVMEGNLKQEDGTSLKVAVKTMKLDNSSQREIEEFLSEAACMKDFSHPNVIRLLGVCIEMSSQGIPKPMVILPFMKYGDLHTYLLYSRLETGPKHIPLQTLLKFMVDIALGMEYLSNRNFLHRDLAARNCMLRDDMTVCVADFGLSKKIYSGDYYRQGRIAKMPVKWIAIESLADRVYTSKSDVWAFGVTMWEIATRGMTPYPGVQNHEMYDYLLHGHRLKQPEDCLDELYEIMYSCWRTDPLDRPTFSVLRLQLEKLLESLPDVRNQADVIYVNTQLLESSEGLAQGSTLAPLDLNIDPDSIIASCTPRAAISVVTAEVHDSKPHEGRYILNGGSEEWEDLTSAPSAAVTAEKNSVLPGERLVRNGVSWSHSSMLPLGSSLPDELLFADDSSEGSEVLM
In words: Mer kinase inhibitory activity assay (in vitro). It is filed as biochemical. To be noted: ATP 30 uM, enzyme 0.25 nM; means from three independent experiments. Here is the method: (§2) The in vitro inhibition assays of all final compounds against Mer and c-Met kinase were performed by Shanghai Bioduro Biological Technology Co., Ltd. (Shanghai, China). We prepared 1× buffer: HEPES 50 mM, MgCl2 10 mM, EGTA 1 mM, NP-40 0.0001%, DTT 2 mM; compound dilution with DMSO. For test compounds, a 100 × final concentration solution was prepared. About 100 nL compounds were transferred to a 384-well plate by using the automated liquid handler. The final DMSO% in the assay is 1%. Enzyme stock solutions were diluted with 1× assay buffer to a concentration of 0.5 nM to make a 2× working solution. […] Substrate solutions were diluted with 1× assay buffer. About 5 μL mix or buffer was added manually to the assay plate (ATP final 30 uM and TK-Sub-Biotin final 2 uM) using a multichannel pipette, spun down at 1000 rpm, and centrifuged for 30 s. After incubating at 30 °C for 60 min, 10 μL of detection solution was added to each well of the assay, mixed briefly with a centrifuge, and equilibrated for another 60 min. The luminescence was recorded using Envision.

The target in another data set is c-Met kinase (Homo sapiens, UniProt P08581). The experiment in a line: c-Met kinase inhibitory activity assay (in vitro). It is filed as biochemical. To be noted: ATP 30 uM, enzyme 0.25 nM; means from three independent experiments. Here is the method: as §2
A short description of data set [1]: Liver microsome stability assay. It is filed as in vitro ADME. The conditions noted are these: pH 7.4, human liver microsomes 0.2 mg/mL, test compound 1 μM, NADPH; for microsomal CLint at 1 μM: read-out: CL Human; for half-life at 1 μM: read-out: T1/2 Human. Here is the method:
Stock solution (10 mM) of each of test compound was prepared in DMSO. The stock solution for each compound was then diluted into 200 μM with acetonitrile. Incubation mixtures were prepared in a total volume of 200 μL with final component concentrations as follows: 0.1 M PBS (pH 7.4), NADPH (2 mM), liver microsomes (0.2 mg/mL), and test compound (1 μM) or positive control. NAPDH was added after a 5 min preincubation of all other components at 37 °C, then pipette-mixed to achieve a homogenous suspension and immediately transferred 20 μL of the incubate as a 0 min sample to wells in a “Quenching” plate, followed by pipette-mixing. At 5, 15, 30, and 60 min, we pipette-mixed the incubate and serially transferred samples of 20 μL of the incubate per time point to wells in a separate “Quenching” plate, followed by pipette-mixing. In “Quenching” plates, 200 μL of acetonitrile was added with IS. The 96 wells were centrifuged at 4000 rpm for 10 min. Then 50 μL of supernatant was mixed with 50 μL of ddH2O and injected into the LC-MS/MS system for analysis.
In general terms: Microsomes from liver hold many membrane-bound enzymes, among them those of drug oxidation.

Values joined by “and” are separate entries in the source; they are usually repeats but may differ in a detail not shown here. Equal entries are not always repeated. Bounds are passed on as bounds.

c-Met kinase, sequence (P08581 25-1390): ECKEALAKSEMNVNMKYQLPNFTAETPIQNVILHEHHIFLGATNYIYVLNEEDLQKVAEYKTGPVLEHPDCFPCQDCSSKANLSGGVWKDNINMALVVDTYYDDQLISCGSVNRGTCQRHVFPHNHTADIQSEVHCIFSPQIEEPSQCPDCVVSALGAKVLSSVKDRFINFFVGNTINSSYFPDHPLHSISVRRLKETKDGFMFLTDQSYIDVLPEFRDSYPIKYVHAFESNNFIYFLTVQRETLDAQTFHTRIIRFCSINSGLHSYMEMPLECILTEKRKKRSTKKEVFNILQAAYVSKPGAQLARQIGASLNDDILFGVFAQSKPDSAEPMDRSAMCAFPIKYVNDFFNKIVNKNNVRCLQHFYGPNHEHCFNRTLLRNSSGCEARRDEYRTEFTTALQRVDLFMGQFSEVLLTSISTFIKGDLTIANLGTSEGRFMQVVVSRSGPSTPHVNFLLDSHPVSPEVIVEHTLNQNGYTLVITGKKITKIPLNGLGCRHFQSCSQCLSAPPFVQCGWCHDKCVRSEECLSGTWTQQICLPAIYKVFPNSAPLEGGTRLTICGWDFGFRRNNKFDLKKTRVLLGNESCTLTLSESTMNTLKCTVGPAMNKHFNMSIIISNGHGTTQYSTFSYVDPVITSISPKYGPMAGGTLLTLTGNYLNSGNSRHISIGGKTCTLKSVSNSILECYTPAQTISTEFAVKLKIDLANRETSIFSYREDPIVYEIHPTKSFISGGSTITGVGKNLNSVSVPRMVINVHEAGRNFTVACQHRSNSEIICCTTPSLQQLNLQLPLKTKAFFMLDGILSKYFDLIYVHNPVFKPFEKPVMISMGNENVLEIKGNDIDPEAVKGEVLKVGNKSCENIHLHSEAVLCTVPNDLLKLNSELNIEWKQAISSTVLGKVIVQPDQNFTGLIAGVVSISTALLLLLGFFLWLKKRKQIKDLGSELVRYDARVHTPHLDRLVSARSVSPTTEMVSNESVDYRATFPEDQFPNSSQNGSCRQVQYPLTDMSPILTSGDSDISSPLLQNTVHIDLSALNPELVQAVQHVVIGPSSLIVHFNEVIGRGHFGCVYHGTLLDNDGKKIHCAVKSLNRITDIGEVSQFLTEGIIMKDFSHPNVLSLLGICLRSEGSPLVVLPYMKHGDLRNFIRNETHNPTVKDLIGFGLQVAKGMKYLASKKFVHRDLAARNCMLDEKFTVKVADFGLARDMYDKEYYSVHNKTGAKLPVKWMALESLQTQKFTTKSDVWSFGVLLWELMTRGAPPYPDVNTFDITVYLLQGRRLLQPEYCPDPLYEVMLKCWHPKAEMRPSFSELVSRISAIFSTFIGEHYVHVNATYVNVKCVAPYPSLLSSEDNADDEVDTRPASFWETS

One may read the IC50 as the concentration that gives 50% inhibition. Take `COc1cc2nccc(Oc3ccc(NC(=O)C4(C(=O)Nc5ccc(F)cc5)CC4)cc3)c2cc1OC` [Cabozantinib, reference compound]: the IC50 was 1720 nM in the data set on HepG2 cells, 29000 nM with MDA-MB-231 cells and 7820 nM in the data set on HCT116 cells.
Turning to `Cc1c(C(=O)Nc2ccc(Oc3ccnc(Nc4ccc(C(=O)NCCCN5CCOCC5)cc4)n3)cc2)c(=O)n(-c2ccccc2)n1C` [Compound 14a], the half-maximal inhibitory concentration (IC50) on Mer kinase is 8.1 nM and 7.9 nM; against c-Met kinase, 151 ± 22.6 nM.
Consider `Cc1c(C(=O)Nc2ccc(Oc3ccnc(Nc4ccc(NC(=O)CN5CCN(C)CC5)cc4)n3)cc2)c(=O)n(-c2ccccc2)n1C` [Compound 14b], for which the concentration for half-maximal inhibition (IC50) is 9.6 nM and 9.4 nM against Mer kinase; 179 ± 25.2 nM against c-Met kinase.
`Cc1c(C(=O)Nc2ccc(Oc3ccnc(Nc4ccc(NS(=O)(=O)c5ccccc5)cc4)n3)cc2)c(=O)n(-c2ccccc2)n1C` [Compound 14c]: the results for the concentration for half-maximal inhibition (IC50) against Mer kinase and at c-Met kinase were 166 ± 21.6 nM and > 1000 nM, respectively.
Regarding `Cc1c(C(=O)Nc2ccc(Oc3ccnc(Nc4cccc(NC(=O)CN5CCN(C)CC5)c4)n3)cc2)c(=O)n(-c2ccccc2)n1C` [Compound 14d], the IC50 at Mer kinase stood at 24.2 ± 2.6 nM; against c-Met kinase, 144 ± 17.3 nM.
For `Cc1c(C(=O)Nc2ccc(Oc3ccnc(Nc4cccc(C(=O)NCCCN5CCOCC5)c4)n3)cc2)c(=O)n(-c2ccccc2)n1C` [Compound 14e], the figures for the half-inhibitory concentration (IC50) against Mer kinase and on c-Met kinase were 40.3 ± 3.6 nM and 321 ± 25.6 nM, respectively.
On to `Cc1c(C(=O)Nc2ccc(Oc3ccnc(Nc4ccc(NC(=O)CN5CCN(C)CC5)c(C#N)c4)n3)cc2)c(=O)n(-c2ccccc2)n1C` [Compound 14g], for which the IC50 against Mer kinase was found to be 7.1 ± 0.9 nM; against c-Met kinase it was 89.4 ± 12.6 nM.
With `Cc1c(C(=O)Nc2ccc(Oc3ccnc(Nc4ccc(NC(=O)CN5CCN(C)CC5)c(F)c4)n3)cc2)c(=O)n(-c2ccccc2)n1C` [Compound 14h], the IC50 worked out at 12.5 ± 2 nM against Mer kinase and 74.9 ± 12.2 nM on c-Met kinase.
`Cc1c(C(=O)Nc2ccc(Oc3ccnc(Nc4ccc(N(C)C(=O)CN5CCN(C)CC5)cc4)n3)cc2)c(=O)n(-c2ccccc2)n1C` [Compound 14i]: the IC50 amounted to 97.1 ± 12.7 nM against Mer kinase and 224 ± 24.6 nM against c-Met kinase.
In the same order, the values of `CC(=O)N1CCN(c2ccc(Nc3nccc(Oc4ccc(NC(=O)C5(C(=O)Nc6ccc(F)cc6)CC5)cc4)n3)cc2)CC1` [Compound 18a] are 85.3 ± 6.8 nM and 15.4 ± 1.4 nM.
On to `O=C(Nc1ccc(F)cc1)C1(C(=O)Nc2ccc(Oc3ccnc(Nc4ccc(NS(=O)(=O)c5ccccc5)cc4)n3)cc2)CC1` [Compound 18b], for which the IC50 at Mer kinase is > 10000 nM; at c-Met kinase, 941 ± 65.9 nM.
In the same order, the values of `O=C(NCCCN1CCOCC1)c1ccc(Nc2nccc(Oc3ccc(NC(=O)C4(C(=O)Nc5ccc(F)cc5)CC4)cc3)n2)cc1` [Compound 18d] are 42.4 ± 5.8 nM and 52.7 ± 8.5 nM.
For `COCCNc1ccc(Nc2nccc(Oc3ccc(NC(=O)C4(C(=O)Nc5ccc(F)cc5)CC4)cc3)n2)cc1` [Compound 18e], in that order: 159 ± 17.4 nM and 77.3 ± 13.1 nM.
Turning to `O=C(Nc1ccc(F)cc1)C1(C(=O)Nc2ccc(Oc3ccnc(Nc4ccc(CCC(O)c5ccccc5)cc4)n3)cc2)CC1` (stereo not drawn) [Compound 18f], the IC50 was 463 ± 55.4 nM against Mer kinase and > 1000 nM against c-Met kinase.
In the case of `CCN1CCN(CC(=O)Nc2ccc(Nc3nccc(Oc4ccc(NC(=O)C5(C(=O)Nc6ccc(F)cc6)CC5)cc4)n3)cc2)CC1` [Compound 18g], the IC50 on Mer kinase was 20.3 ± 3.2 nM; against c-Met kinase, 48.7 ± 8.7 nM.
`CC(C)N1CCN(CC(=O)Nc2ccc(Nc3nccc(Oc4ccc(NC(=O)C5(C(=O)Nc6ccc(F)cc6)CC5)cc4)n3)cc2)CC1` [Compound 18h]: the 50% inhibitory concentration (IC50) against Mer kinase amounted to 12.4 ± 1.9 nM; against c-Met kinase, 42.6 ± 8.1 nM.
In the same order, the values of `O=C(CN1CCN(CC2CC2)CC1)Nc1ccc(Nc2nccc(Oc3ccc(NC(=O)C4(C(=O)Nc5ccc(F)cc5)CC4)cc3)n2)cc1` [Compound 18i] are 30.9 ± 5.3 nM and 77.1 ± 15.2 nM.
`CC(=O)N1CCN(CC(=O)Nc2ccc(Nc3nccc(Oc4ccc(NC(=O)C5(C(=O)Nc6ccc(F)cc6)CC5)cc4)n3)cc2)CC1` [Compound 18j]: the concentration for half-maximal inhibition (IC50) stood at 57.5 ± 9.4 nM at Mer kinase and 32.8 ± 5.8 nM on c-Met kinase.
For `CN1CCN(CC(=O)Nc2ccc(Nc3nccc(Oc4ccc(NC(=O)C5(C(=O)Nc6ccc(F)cc6)CC5)cc4)n3)cc2C#N)CC1` [Compound 18k], in that order: 10.2 ± 1.4 nM and 51.2 ± 8 nM.
On to `CN1CCN(CC(=O)Nc2ccc(Nc3nccc(Oc4ccc(NC(=O)C5(C(=O)Nc6ccc(F)cc6)CC5)cc4)n3)cc2F)CC1` [Compound 18l], for which the IC50 against Mer kinase worked out at 18.3 ± 2.7 nM. This compound also displayed an IC50 against c-Met kinase of 48.7 ± 8.2 nM. Also, in data set [1], the microsomal CLint at 1 μM stood at 360 µL/min/mg and the half-life at 1 μM amounted to 9.6 min.
For `CN1CCN(CC(=O)N(C)c2ccc(Nc3nccc(Oc4ccc(NC(=O)C5(C(=O)Nc6ccc(F)cc6)CC5)cc4)n3)cc2)CC1` [Compound 18m], the IC50 at Mer kinase is 126 ± 17.8 nM; against c-Met kinase, 74.4 ± 13.5 nM.
For `CC(C(=O)Nc1ccc(Nc2nccc(Oc3ccc(NC(=O)C4(C(=O)Nc5ccc(F)cc5)CC4)cc3)n2)cc1)N1CCN(C)CC1` (stereo not drawn) [Compound 18n], the half-maximal inhibitory concentration (IC50) was determined as 31.6 ± 5.4 nM on Mer kinase and 30.7 ± 4.8 nM at c-Met kinase. Moreover, the microsomal CLint at 1 μM in data set [1] is 290 µL/min/mg. The half-life at 1 μM in data set [1] is 11.9 min.
For the compound `CN1CCN(CC(=O)Nc2cccc(Nc3nccc(Oc4ccc(NC(=O)C5(C(=O)Nc6ccc(F)cc6)CC5)cc4)n3)c2)CC1` [Compound 18o], 24.8 ± 3.3 nM corresponded to half-maximal inhibition on Mer kinase (IC50). Also, at c-Met kinase, it took 39.8 ± 6.6 nM to reach half-maximal inhibition (IC50). Also, in data set [1], the microsomal CLint at 1 μM came to 400 µL/min/mg and the half-life at 1 μM was determined as 8.6 min.
As to `C[C@]12CC[C@H]3[C@@H](CCC4=CC(=O)CC[C@@]43C)[C@@H]1CC[C@@H]2O` [Testosterone, reference compound], the half-life at 1 μM in data set [1] turned out to be 32.1 min.

The values above are taken from article PMC10819570, “Design, Synthesis, and Biological Evaluation of 2-Substituted Aniline Pyrimidine Derivatives as Potent Dual Mer/c-Met Inhibitors” (Molecules, 2024).
